Assay results from the CheMixHub viscosity set.
± gives the uncertainty stated by the source.

Test: xn = mol fraction of the nth substance listed

Which viscosity (298.15 K, 101.33 kPa, x2 = 0.1103) does the source give for `CC(C)CC(C)O` (configuration not stated) + CCO here?
Its viscosity is 3.682 ± 0.029 mPa·s.

And the viscosity (298.15 K, 101.33 kPa, x2 = 0.2012)?
The viscosity was 3.495 ± 0.028 mPa·s.

What about the viscosity (298.15 K, 101.33 kPa, x2 = 0.3207) of the same molecule?
The viscosity was 3.131 ± 0.025 mPa·s.

And the viscosity (298.15 K, 101.33 kPa, x2 = 0.4152)?
Its viscosity is 2.817 ± 0.022 mPa·s.

What about the viscosity (298.15 K, 101.33 kPa, x2 = 0.5152) of the same molecule?
The viscosity was 2.487 ± 0.02 mPa·s.

And the viscosity (298.15 K, 101.33 kPa, x2 = 0.6098)?
Its viscosity is 2.16 ± 0.017 mPa·s.

What about the viscosity (298.15 K, 101.33 kPa, x2 = 0.7078) of the same molecule?
The viscosity was 1.883 ± 0.015 mPa·s.

And the viscosity (298.15 K, 101.33 kPa, x2 = 0.8008)?
Its viscosity is 1.6 ± 0.013 mPa·s.

What about the viscosity (298.15 K, 101.33 kPa, x2 = 0.8981) of the same molecule?
Its viscosity is 1.342 ± 0.011 mPa·s.

What does the source list for `CCCCC` + CCO?
viscosity (298.15 K, 101.33 kPa, x2 = 0.0673): 0.245 ± 0.003 mPa·s; viscosity (298.15 K, 101.33 kPa, x2 = 0.1351): 0.255 ± 0.004 mPa·s; viscosity (298.15 K, 101.33 kPa, x2 = 0.2366): 0.288 ± 0.004 mPa·s; viscosity (298.15 K, 101.33 kPa, x2 = 0.3031): 0.302 ± 0.004 mPa·s; viscosity (298.15 K, 101.33 kPa, x2 = 0.4034): 0.347 ± 0.005 mPa·s; viscosity (298.15 K, 101.33 kPa, x2 = 0.5262): 0.425 ± 0.006 mPa·s; viscosity (298.15 K, 101.33 kPa, x2 = 0.6339): 0.521 ± 0.007 mPa·s; viscosity (298.15 K, 101.33 kPa, x2 = 0.7315): 0.634 ± 0.008 mPa·s; viscosity (298.15 K, 101.33 kPa, x2 = 0.8097): 0.742 ± 0.009 mPa·s; viscosity (298.15 K, 101.33 kPa, x2 = 0.9174): 0.927 ± 0.012 mPa·s

For `CCCCCCCCn1cc[n+](C)c1.O=[N+]([O-])[O-]` + CCO, which viscosity (293.15 K, 101 kPa, x2 = 0.128) is on record?
The viscosity was 464.3 ± 140 mPa·s.

With `CCCCCCCO` + CCO as the molecule, how does the viscosity (298.15 K, 101 kPa, x2 = 0.05) read?
Its viscosity is 5.456 ± 0.053 mPa·s.

What about the viscosity (298.15 K, 101 kPa, x2 = 0.1) of the same molecule?
Its viscosity is 5.144 ± 0.049 mPa·s.

And the viscosity (298.15 K, 101 kPa, x2 = 0.15)?
Its viscosity is 4.838 ± 0.046 mPa·s.

And the viscosity (298.15 K, 101 kPa, x2 = 0.2)?
Its viscosity is 4.539 ± 0.043 mPa·s.

What about the viscosity (298.15 K, 101 kPa, x2 = 0.25) of the same molecule?
Its viscosity is 4.249 ± 0.04 mPa·s.

What about the viscosity (298.15 K, 101 kPa, x2 = 0.3) of the same molecule?
Its viscosity is 3.969 ± 0.037 mPa·s.

What about the viscosity (298.15 K, 101 kPa, x2 = 0.35) of the same molecule?
The viscosity was 3.699 ± 0.034 mPa·s.

And the viscosity (298.15 K, 101 kPa, x2 = 0.4)?
The viscosity was 3.439 ± 0.031 mPa·s.

And the viscosity (298.15 K, 101 kPa, x2 = 0.45)?
Its viscosity is 3.191 ± 0.029 mPa·s.

And the viscosity (298.15 K, 101 kPa, x2 = 0.5)?
Its viscosity is 2.954 ± 0.027 mPa·s.

What about the viscosity (298.15 K, 101 kPa, x2 = 0.55) of the same molecule?
The viscosity was 2.727 ± 0.024 mPa·s.

What about the viscosity (298.15 K, 101 kPa, x2 = 0.6) of the same molecule?
The viscosity was 2.512 ± 0.022 mPa·s.

And the viscosity (298.15 K, 101 kPa, x2 = 0.65)?
The viscosity was 2.306 ± 0.02 mPa·s.

What about the viscosity (298.15 K, 101 kPa, x2 = 0.7) of the same molecule?
The viscosity was 2.111 ± 0.019 mPa·s.

And the viscosity (298.15 K, 101 kPa, x2 = 0.75)?
The viscosity was 1.924 ± 0.017 mPa·s.

What about the viscosity (298.15 K, 101 kPa, x2 = 0.8) of the same molecule?
The viscosity was 1.744 ± 0.015 mPa·s.

What about the viscosity (298.15 K, 101 kPa, x2 = 0.85) of the same molecule?
The viscosity was 1.571 ± 0.014 mPa·s.

And the viscosity (298.15 K, 101 kPa, x2 = 0.9)?
Its viscosity is 1.403 ± 0.012 mPa·s.

What about the viscosity (298.15 K, 101 kPa, x2 = 0.95) of the same molecule?
Its viscosity is 1.237 ± 0.011 mPa·s.

And the viscosity (308.15 K, 101 kPa, x2 = 0.05)?
The viscosity was 4.038 ± 0.038 mPa·s.

And the viscosity (308.15 K, 101 kPa, x2 = 0.1)?
Its viscosity is 3.82 ± 0.035 mPa·s.

What about the viscosity (308.15 K, 101 kPa, x2 = 0.15) of the same molecule?
Its viscosity is 3.607 ± 0.033 mPa·s.

And the viscosity (308.15 K, 101 kPa, x2 = 0.2)?
Its viscosity is 3.4 ± 0.031 mPa·s.

And the viscosity (308.15 K, 101 kPa, x2 = 0.25)?
Its viscosity is 3.199 ± 0.029 mPa·s.

What about the viscosity (308.15 K, 101 kPa, x2 = 0.3) of the same molecule?
The viscosity was 3.005 ± 0.027 mPa·s.

And the viscosity (308.15 K, 101 kPa, x2 = 0.35)?
The viscosity was 2.817 ± 0.025 mPa·s.

And the viscosity (308.15 K, 101 kPa, x2 = 0.4)?
The viscosity was 2.636 ± 0.024 mPa·s.

And the viscosity (308.15 K, 101 kPa, x2 = 0.45)?
The viscosity was 2.462 ± 0.022 mPa·s.

What about the viscosity (308.15 K, 101 kPa, x2 = 0.5) of the same molecule?
Its viscosity is 2.294 ± 0.021 mPa·s.

And the viscosity (308.15 K, 101 kPa, x2 = 0.55)?
The viscosity was 2.132 ± 0.019 mPa·s.

What about the viscosity (308.15 K, 101 kPa, x2 = 0.6) of the same molecule?
Its viscosity is 1.977 ± 0.017 mPa·s.

What about the viscosity (308.15 K, 101 kPa, x2 = 0.65) of the same molecule?
The viscosity was 1.827 ± 0.016 mPa·s.

What about the viscosity (308.15 K, 101 kPa, x2 = 0.7) of the same molecule?
The viscosity was 1.682 ± 0.015 mPa·s.

What about the viscosity (308.15 K, 101 kPa, x2 = 0.75) of the same molecule?
Its viscosity is 1.543 ± 0.013 mPa·s.

And the viscosity (308.15 K, 101 kPa, x2 = 0.8)?
The viscosity was 1.408 ± 0.012 mPa·s.

What about the viscosity (308.15 K, 101 kPa, x2 = 0.85) of the same molecule?
Its viscosity is 1.276 ± 0.011 mPa·s.

And the viscosity (308.15 K, 101 kPa, x2 = 0.9)?
The viscosity was 1.147 ± 0.0099 mPa·s.

What about the viscosity (308.15 K, 101 kPa, x2 = 0.95) of the same molecule?
The viscosity was 1.021 ± 0.0089 mPa·s.

What about the viscosity (318.15 K, 101 kPa, x2 = 0.05) of the same molecule?
The viscosity was 3.025 ± 0.028 mPa·s.

What about the viscosity (318.15 K, 101 kPa, x2 = 0.1) of the same molecule?
The viscosity was 2.89 ± 0.026 mPa·s.

What about the viscosity (318.15 K, 101 kPa, x2 = 0.15) of the same molecule?
The viscosity was 2.75 ± 0.025 mPa·s.

What about the viscosity (318.15 K, 101 kPa, x2 = 0.2) of the same molecule?
Its viscosity is 2.607 ± 0.024 mPa·s.

And the viscosity (318.15 K, 101 kPa, x2 = 0.25)?
Its viscosity is 2.465 ± 0.022 mPa·s.

What about the viscosity (318.15 K, 101 kPa, x2 = 0.3) of the same molecule?
The viscosity was 2.325 ± 0.021 mPa·s.

What about the viscosity (318.15 K, 101 kPa, x2 = 0.35) of the same molecule?
The viscosity was 2.188 ± 0.019 mPa·s.

And the viscosity (318.15 K, 101 kPa, x2 = 0.4)?
The viscosity was 2.055 ± 0.018 mPa·s.

What about the viscosity (318.15 K, 101 kPa, x2 = 0.45) of the same molecule?
The viscosity was 1.927 ± 0.017 mPa·s.

And the viscosity (318.15 K, 101 kPa, x2 = 0.5)?
The viscosity was 1.805 ± 0.016 mPa·s.

And the viscosity (318.15 K, 101 kPa, x2 = 0.55)?
Its viscosity is 1.688 ± 0.015 mPa·s.

What about the viscosity (318.15 K, 101 kPa, x2 = 0.6) of the same molecule?
Its viscosity is 1.577 ± 0.014 mPa·s.

And the viscosity (318.15 K, 101 kPa, x2 = 0.65)?
The viscosity was 1.471 ± 0.013 mPa·s.

What about the viscosity (318.15 K, 101 kPa, x2 = 0.7) of the same molecule?
Its viscosity is 1.369 ± 0.012 mPa·s.

What about the viscosity (318.15 K, 101 kPa, x2 = 0.75) of the same molecule?
Its viscosity is 1.271 ± 0.011 mPa·s.

What about the viscosity (318.15 K, 101 kPa, x2 = 0.8) of the same molecule?
The viscosity was 1.174 ± 0.01 mPa·s.

What about the viscosity (318.15 K, 101 kPa, x2 = 0.85) of the same molecule?
The viscosity was 1.078 ± 0.0094 mPa·s.

And the viscosity (318.15 K, 101 kPa, x2 = 0.9)?
The viscosity was 0.9796 ± 0.0086 mPa·s.

And the viscosity (318.15 K, 101 kPa, x2 = 0.95)?
Its viscosity is 0.8769 ± 0.0078 mPa·s.
